Data as given in paper PMC4515351 (Parasitology, 2014).
Read-outs that look alike come from different tables or passages of the source.

Experiments:
[1] = biological target: FhGALE (Fasciola hepatica UDP-galactose 4’-epimerase) (Fasciola hepatica, UniProt A0A3G0ZAV7); experiment: biochemical; type: biochemical; settings: for Selectivity of inhibition, FhGALE versus HsGALE (in words): as judged by respective IC50 values; for IC50 range in words: under the conditions tested, summary of Table 1
[2] = biological target: T1, HsGALE (human GALE) (Homo sapiens, UniProt Q14376); experiment: HsGALE inhibition, coupled enzyme assay with UDP-glucose dehydrogenase; type: biochemical
T1 sequence (Q14376 1-348): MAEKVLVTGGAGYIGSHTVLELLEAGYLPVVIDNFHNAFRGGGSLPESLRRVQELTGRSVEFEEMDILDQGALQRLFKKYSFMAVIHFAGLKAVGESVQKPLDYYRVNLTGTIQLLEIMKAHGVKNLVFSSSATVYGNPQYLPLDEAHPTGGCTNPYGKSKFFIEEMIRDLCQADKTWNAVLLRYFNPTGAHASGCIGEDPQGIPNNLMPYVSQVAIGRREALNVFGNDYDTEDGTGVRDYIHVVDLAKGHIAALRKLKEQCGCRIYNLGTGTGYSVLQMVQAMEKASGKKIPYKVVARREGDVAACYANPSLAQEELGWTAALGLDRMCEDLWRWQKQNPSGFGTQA

[3] = biological target: FhGALE (Fasciola hepatica, UniProt A0A3G0ZAV7); type: binding; settings: for Effect on melting temperature (Tm) of FhGALE: thermal scanning fluorimetry, FhGALE 3.0 µM; for Kd: read-out: apparent dissociation constant (KD,app)
[4] = test system: UDP-glucose dehydrogenase; settings: 100 µM compound, 0.17 mM UDP-glucose, […] NAD+

IC50 [1]	IC50 [2]	IC50 range in words [1]	Selectivity of inhibition, FhGALE versus HsGALE (in words) ([1]; listed as N-[(benzyloxy)carbonyl]leucyltryptophan)	IC50 ([1]; read-out: FhGALE IC50, pH 7.5)	Kd [3]	Selectivity of inhibition, FhGALE versus HsGALE (in words) ([1]; listed as 5-fluoroorotate)	SMILES	Selectivity of inhibition, FhGALE versus HsGALE (in words) [1]	Effect on melting temperature (Tm) of FhGALE [3]	Effect on rate of coupling enzyme UDP-glucose dehydrogenase [4]
260 µM	9.5 ± 8.2 µM						Cn1c(=O)c2[nH]c(COc3ccc(C(C)(C)C)cc3)nc2n(C)c1=O [NSC36525, 8-[(4-tert-butylphenoxy)methyl]-1,3-dimethyl-3,7-dihydro-1H-purine-2,6-dione]	inhibited the human enzyme to a greater extent than the liver fluke one		
0.061 ± 0.02 µM	0.045 ± 0.023 µM	submicromolar					CCOc1ccc(NC(=O)c2cc3ccccc3cc2O)cc1 [NSC50690, N-(4-ethoxyphenyl)-3-hydroxynaphthalene-2-carboxamide]	inhibited both enzymes to approximately the same extent		
							NC(=O)c1ccc[n+]([C@@H]2O[C@H](COP(=O)([O-])OP(=O)(O)OC[C@H]3O[C@@H](n4cnc5c(N)ncnc54)[C@H](O)[C@@H]3O)[C@@H](O)[C@H]2O)c1 [NAD^+]		no measurable effect	
							COc1cccc(OCC(O)CN2CCN(c3ccccc3)CC2)c1 (centres unmarked) [NSC91378]			affect the rate
0.00011 ± 0.00012 µM	0.0061 ± 0.0092 µM	sub-nanomolar					CC1(C)OC2C(CO)OC(n3cnc4c(=S)nc[nH]c43)C2O1 (centres unmarked) [NSC27305, 9-[6-(hydroxymethyl)-2,2-dimethyltetrahydrofuro[3,4-d][1,3]dioxol-4-yl]-3,9-dihydro-6H-purine-6-thione]	inhibited both enzymes to approximately the same extent		
0.3 ± 0.11 µM	0.013 ± 0.006 µM	submicromolar					CC(C)c1nc2c([nH]1)c(=O)n(C)c(=O)n2C [NSC14303]	inhibited the human enzyme to a greater extent than the liver fluke one		
		submicromolar	selectivity for FhGALE over HsGALE	0.1 ± 0.046 µM	210 ± 20 µM		CC(C)CC(NC(=O)OCc1ccccc1)C(=O)NC(Cc1c[nH]c2ccccc12)C(=O)O (centres unmarked) [NSC335979, (3-(1H–indol-3-yl)-2-[[4-methyl-2-(phenylmethoxycarbonylamino)pentanoyl]amino]propionate)]	inhibited FhGALE several orders of magnitude more strongly than HsGALE	reducing the Tm in a concentration dependent manner	
		submicromolar		0.03 ± 0.011 µM	1900 ± 900 µM	selectivity for FhGALE over HsGALE	O=C1NC(=O)C(F)C(C(=O)O)N1 (centres unmarked) [NSC31712, 5-fluoro-2,6-dioxohexahydropyrimidine-4-carboxylate]	inhibited FhGALE several orders of magnitude more strongly than HsGALE	reducing the Tm in a concentration dependent manner	
